Assay results: US20100022495A1, “MODULATING ENDOPLASMIC RETICULUM STRESS IN THE TREATMENT OF TUBEROUS SCLEROSIS” (PRESIDENT AND FELLOWS OF HARVARD COLLEGE, priority 2005, published 2010)

What was measured:
[1] = tested on: ER stress; settings: western blot after treatment of the animal with the compound; cited from earlier work
[2] = tested on: TSC1−/− MEFs; test: ER stress parameters (western blot, XBP-1 rt-PCR) in TSC1-deficient MEFs; assay type: cell-based, mouse; settings: for splicing of XBP-1 mRNA (UPR activation): thapsigargin 0.05 nM, tunicamycin 0.002 ug/ml, compared with controls
Description: (§1) All of the mouse embryonic fibroblast (MEF) cell lines (TSC1+/+, TSC1−/−, TSC2+/+, TSC2−/−) were cultured in medium containing DMEM-H+10% fetal bovine serum (FBS)+1% PS (penicillin-streptomycin complex) in 175 cm^2 cell culture flasks using standard methods. Upon reaching 90% confluency, cells were split into 10 cm dishes at 30-40% confluency and grown again in DMEM-H+10% FBS+1% PS to about 60% confluency for experiments.
[…] As a vehicle control, DMSO was not present at a sufficiently high concentration to act as a chemical chaperone. […] At the end of the incubation, the media was removed and dishes were immediately frozen in liquid nitrogen and stored at −80° C. untile further use.
(§2) Protein extracts were prepared with a lysis buffer containing 25 mM Tris-HCl (pH 7.4), 2 mM Na3VO4, 10 mM NaF, 10 mM Na4P2O7, 1 mM EGTA, 1 mM EDTA, 1% NP-40, 5 ug/ml leupeptin, 5 ug/ml aprotinin, 10 nM okadaic acid, and 1 mM phenylmethylsulfonyl fluoride (PMSF). Immunoprecipitations and immunoblotting experiments were performed with 200 and 75 μg total protein, respectively without any freeze-thaw cycles from individual aliquots.
(§3) Protein concentrations were normalized and the desired amounts were aliquotted into tubes. Laemelli buffer was added to a 1× final concentration and the samples were boiled for five minutes. After boiling, the samples were incubated at room temperature for 20 minutes. The boiled, cooled lysates were centrifuged at 14,000 rpm and subject to SDS-PAGE. Proteins were transferred to PVDF membranes for western blotting.
(§4) Membrane blotting was performed using standard techniques and reagents. Appropriate modification depending on the antibodies used and other considerations, is within the ability of those skilled in the art. Membranes were blocked in 10% blocking reagent for 1 hour prior to exposure to primary antibody in tris-buffered saline-tween (TBST), pH 7.4, overnight at 4° C. Following overnight incubation, membranes were washed in TBST for 3×20 minutes and placed into secondary antibody for 1 hour. Subsequently the membrane was washed 3×20 minutes in TBST. After the washing period, the membranes were developed by using a chemiluminescence kit and the bands were visualized using a phospho imager system (VersaDoc Imaging System, Model 3000).
(§5) Phosphorylation state of the ER stress markers PERK and s6K1 were analyzed in both wild type (TSC2+/+ and TSC1+/+) and TSC-deficient (TSC2−/− and TSC1−/−) MEFs. Cells were cultured and treated with DMSO (vehicle control) or rapamycin as discussed above. Rapamycin inhibits signaling through the mTOR pathway which is required for ER stress response. The DMSO was present at too low of a concentration to act as a chemical chaperone. Cells were harvested and protein and RNA were isolated. Protein samples were resolved by SDS-PAGE and proteins were transferred to PVDF membrane for western blotting as described above. RNA was subjected to rt-PCR using probes designed to mouse XBP-1 to detect splicing.
(§6) Phosphorylation state of the ER stress markers PERK, eIF2α cJun, JNK and s6K1, and the level of spliced XBP-1 were analyzed in both wild type and TSC-deficient MEFs. Cells were treated with PBS (vehicle control) or PBA (chemical chaperone) as discussed above. Cells were harvested, samples were resolved by SDS-PAGE, proteins were transferred to PVDF membrane, and western blots were performed as described above.

[3] = tested on: TSC2−/− MEFs; test: ER stress parameters (western blot, XBP-1 rt-PCR) in TSC2-deficient MEFs; assay type: cell-based, mouse; settings: for splicing of XBP-1 mRNA (UPR activation): thapsigargin 0.05 nM, tunicamycin 0.002 ug/ml, compared with controls
Description: as §1
At the start of the experiment, cells were placed in fresh media and treated with 200 nM Rapamycin or 10 mM […], and DMSO or PBS as respective vehicle controls (PBA was dissolved in PBS, and rapamycin was dissolved in DMSO), for 19 hours. As a vehicle control, DMSO was not present at a sufficiently high concentration to act as a chemical chaperone. Cells were then washed 3 times with serum-free DMEM-H+1% PS and incubated for 5 hours in serum free DMEM-H+1% PS in the presence of rapamycin or PBA and their appropriate vehicle controls. At the end of the incubation, the media was removed and dishes were immediately frozen in liquid nitrogen and stored at −80° C. untile further use.
as §2, §3, §4, §5, §6

[4] = tested on: c-Jun Amino Terminal Kinase-1 (JNK-1); test: c-Jun Amino Terminal Kinase (JNK) kinase assay on immunoprecipitates from TSC2-deficient cells; assay type: cell-based, mouse; settings: PBA 10 mM
Description: Cell lysates were prepared as above, and subsequently incubated with primary antibody and Sepharose beads, either Protein A Sepharose or Protein G Sepharose depending on the antibody. The samples were incubated on a rotating apparatus overnight at 4° C. Subsequently, beads were centrifuged at 14,000 rpm and washed 3 times with cold lysis buffer. If immunoprecipitates were to be subjected to SDS-PAGE, they were boiled in 2× Laemmli buffer for 5 minutes prior to loading.
Following immunoprecipitation the beads were washed 3 times with lysis buffer as described above, and two times with JNK kinase assay buffer (25 mM HEPES (pH: 7.4), 20 mM MgCl2, 20 mM β-glycerophosphate, 0.5 mM EGTA, 0.5 mM NaF, 0.5 mM NaOrthoVanadate, 1 mM PMSF) for equilibration. After washing with kinase buffer, the beads were incubated in 17 μl kinase buffer, 1 μl [^32P]γ-ATP and 4 μg of c-Jun fusion protein at 30° C. for 20 minutes. The reaction was terminated by the addition of Laemmli buffer. The samples were resolved by SDS-page and transferred to a PVDF membrane as described above. Phosphorylated c-Jun bands were visualized prior to western blotting.
Phosphorylation state of the ER stress markers PERK, eIF2α cJun, JNK and s6K1, and the level of spliced XBP-1 were analyzed in both wild type and TSC-deficient MEFs. Cells were treated with PBS (vehicle control) or PBA (chemical chaperone) as discussed above. […]

[5] = tested on: TSC2−/− cells; test: Apoptosis (Cell Death Elisa, caspase 3 or PARP cleavage) in TSC2−/− cells; assay type: cell-based, mouse
[6] = tested on: IRS-1; test: Degradation pattern of IRS-1 after cycloheximide addition in TSC-1 deficient cells; assay type: cell-based, mouse; settings: pretreatment with PBA (an hour without PBA)
From the text: (§7) It has been previously shown that when ER stress is induced acutely, IRS-1 is highly phosphorylated at serine 307 residue, and insulin induced tyrosine phosphorylation is blocked. […] Eight hour stimulation with thapsigargin in the presence of MG132 leads to ubiquitination of IRS-1. […] As mentioned above, IRS-1 degradation was increased in both TSC1- and TSC2-deficient cells. […] IRS-1 protein levels became totally undetectable in an hour after cycloheximide addition, whereas pretreatment with PBA extends this period up to 4 hours.

[7] = tested on: TSC-1−/− cells; test: Insulin signaling (IRS-1, IRS-2, Akt western blot) in TSC-1−/− cells; assay type: cell-based, mouse; settings: PBA treatment
Description: (§8) For insulin signaling experiments, cells were treated exactly the same way as for analysis of ER stress parameters. At the end of a 5-hour starvation period, cells were either stimulated with PBS or with 100 nM insulin for 5 minutes for analysis of ISR phosphorylation analysis, or 15 minutes for Akt phosphorylation analysis. Samples were harvested and subjected to western blotting as described above. Blots were probed with primary antibodies targeted to total and phosphorylated insulin receptor substrate (IRS)-1, and -2, and Akt, a downstream target in the insulin signaling pathway.

[8] = tested on: TSC-2−/− cells; test: Insulin signaling (IRS-1, IRS-2, Akt western blot) in TSC-2−/− cells; assay type: cell-based, mouse; settings: PBA treatment
Description: as §8

[9] = tested on: TSC1−/− cells; test: Apoptosis (Cell Death Elisa, caspase 3 or PARP cleavage) in TSC1−/− cells; assay type: cell-based, mouse
Description: (§9) ER stress can cause apoptosis. […] Wild-type and TSC1−/− cells were plated in 96 well plates in DMEM-H+10% FBS+1% PS at 40-50% confluence. Upon reaching about 80% confluence, the cells were washed with DMEM-H without FBS and treated with the ER stress inducer thapsigargin (10 nM) or DMSO (vehicle control) for 6 hours in serum-free DMEM-H+1% PS. Apoptosis was analyzed by using Cell Death Elisa Kit using the manufacturer's instructions, or by detection of caspase 3 or PARP cleavage.

[10] = tested on: IRS-1; test: IRS-1 degradation and ubiquitination during ER stress induced by thapsigargin or tunicamycin; assay type: cell-based; settings: for degradation of IRS-1: prolonged exposure to ER stress
From the text: as §7

[11] = tested on: Wild-type control cells; test: Apoptosis in wild-type control cells; assay type: cell-based, mouse; settings: thapsigargin, same time period (6 hours)
Description: as §9

[12] = tested on: wild type control cells; test: UPR activation by low doses of ER stress inducers in wild type control cells; assay type: cell-based, mouse; settings: thapsigargin 0.05 nM, tunicamycin 0.002 ug/ml
Description: as §1
TSC-deficient cells and their corresponding control cells were exposed to extremely low doses of thapsigargin (0.05 nM) and tunicamycin (0.002 ug/ml) at which the UPR is not activated in wild type control cells. TSC1- and TSC2-deficient cells responded to the ER stress inducers by activating the UPR as determined by increased splicing of XBP-1 mRNA when compared with their controls.

[13] = tested on: kidney adenomas and liver hemangiomas of TSC-2+/− mice; assay type: in vivo; settings: thapsigargin 1 mg/kg
Description: To address this, we have used around ˜1 year old TSC-2+/−mice for thapsigargin (1 mg/kg) or vehicle treatment. After 7 days of thapsigargin administration we have analyzed the apoptosis with tunnel assay in the kidney adenomas. […] Increased tunnel positivity in liver hemangiomas after thapsigargin treatment was also observed, but lack of liver hemangiomas in vehicle treated group, limits the conclusions that can be drawn from the study.

[14] = TSC1-deficient MEFs, western blot, rapamycin 200 nM, 12 hours, PBA 10 mM
[15] = TSC2-deficient MEFs, western blot, rapamycin 200 nM, 12 hours, PBA 10 mM
[16] = 8 hours in the presence of 26S proteosome inhibitor epoxomicin

C[C@H](CCC(=O)NCCS(=O)(=O)O)[C@H]1CC[C@H]2[C@@H]3[C@@H](O)C[C@@H]4C[C@H](O)CC[C@]4(C)[C@H]3CC[C@]12C [TUDCA, tauroursodeoxycholic acid]
ER stress in animals (phosphorylation of PERK, activation of JNK, phosphorylation of IRE-1α) [1]: regulate ER stress

C[C@@H]1C[C@@H]([C@H](O)CC2CC(=O)NC(=O)C2)C(=O)[C@@H](C)C1 [Cyclohexamide]
PERK phosphorylation [2, 14]: decrease | PERK phosphorylation [3, 15]: decrease

O=C(O)CCCc1ccccc1 [PBA, 4-phenyl butyric acid]
PERK phosphorylation [2, 14]: block | S6 phosphorylation [2, 14]: significant decrease | s6K1 phosphorylation [2, 14]: significant decrease | eIF2α phosphorylation ([2]; TSC1-deficient cells, PBA 10 mM): substantial decrease | XBP-1 mRNA splicing after glucose starvation ([2]; TSC-1 deficient cells glucose starved in the presence of 4-PBA): significantly reduced | glucose starvation induced CHOP transcription ([2]; TSC-1 deficient cells, 4-PBA treatment): significantly reduced | PERK phosphorylation [3, 15]: blocked | S6 phosphorylation [3, 15]: significant decrease | eIF2α phosphorylation ([3]; TSC2-deficient cells, PBA 10 mM): blocked | XBP-1 mRNA splicing after glucose starvation ([3]; TSC-2 deficient cells glucose starved in the presence of 4-PBA): significantly reduced | c-Jun Amino Terminal Kinase-1 (JNK-1) activity [4]: suppressed | rescue from ER stress inducer sensitivity ([5]; TSC2-deficient cells, treatment with chemical chaperone): at least partially rescued | Glucose starvation induced PARP and caspase-3 cleavage ([5]; TSC-2−/− cells, 4-PBA treatment): blocked | period until IRS-1 protein levels become undetectable after cycloheximide addition [6]: up to 4 hours | insulin induced IRS-1 tyrosine phosphorylation ([7]; 100 nM insulin 5 minutes): improved | insulin induced IRS-2 tyrosine phosphorylation ([7]; 100 nM insulin 5 minutes): improved | insulin induced Akt phosphorylation ([7]; 100 nM insulin 15 minutes): improved | protein levels of IRS-1 [7]: increase | ER stress in animals (phosphorylation of PERK, activation of JNK, phosphorylation of IRE-1α) [1]: regulate ER stress | insulin induced IRS-1 tyrosine phosphorylation ([8]; 100 nM insulin 5 minutes): improved | insulin induced IRS-2 tyrosine phosphorylation ([8]; 100 nM insulin 5 minutes): improved | insulin induced Akt phosphorylation ([8]; 100 nM insulin 15 minutes): improved | protein levels of IRS-1 [8]: increase | Glucose starvation induced PARP and caspase-3 cleavage ([9]; TSC-1−/− cells, 4-PBA treatment): blocked

C/C=C(/C)C(=O)O[C@H]1C(C)=C2[C@H]([C@@H]1OC(=O)CCCCCCC)[C@@](C)(OC(C)=O)C[C@H](OC(=O)CCC)[C@@]1(O)[C@H]2OC(=O)[C@@]1(C)O [thapsigargin]
ubiquitination of IRS-1 [10, 16]: severe ubiquitination | ubiquitination of IRS-1 ([10]; eight hour stimulation in the presence of MG132): ubiquitination | degradation of IRS-1 [10]: degradation of IRS-1 | splicing of XBP-1 mRNA (UPR activation) ([2]; TSC1-deficient cells): increased | splicing of XBP-1 mRNA (UPR activation) ([3]; TSC2-deficient cells): increased | apoptosis ([5]; TSC2−/− cells, thapsigargin, after 6 hours): massive apoptosis | PARP and caspase-3 cleavage ([5]; TSC-2−/− cells, induction of ER stress): increased | apoptosis [11]: no apoptosis | UPR activation [12]: not activated | cleaved caspase-3 or PARP cleavage ([9]; TSC1−/− cells after thapsigargin treatment, compared with controls): significantly induced | apoptosis ([9]; TSC1−/− cells, thapsigargin 10 nM, after 6 hours): massive apoptosis | tunnel positivity in liver hemangiomas ([13]; no liver hemangiomas in vehicle treated group): Increased | tunnel assay positive cells in kidney adenomas ([13]; ~1 year old TSC-2+/− mice, after 7 days): clear up-regulation

tunicamycin
ubiquitination of IRS-1 [10, 16]: severe ubiquitination | degradation of IRS-1 [10]: degradation of IRS-1 | splicing of XBP-1 mRNA (UPR activation) ([2]; TSC1-deficient cells): increased | splicing of XBP-1 mRNA (UPR activation) ([3]; TSC2-deficient cells): increased | UPR activation [12]: not activated
